Assay results as given in ChEMBL document CHEMBL1201862, “PubChem BioAssay data set” (2004).
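Cultured in 96-well plates, cells were exposed to test compound for 48 hours across five concentrations. Abbreviation: GI50, concentration required for 50% inhibition of growth.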 Calls of active or inactive are those of the source. Cut-off read from the data, not from the text of the source: active = GI50 up to about 1.1 µM and inactive = higher.

Legend:
Experiment in all cases: DTP human tumour cell line panel, 48 h
HOP-62 = tested on: HOP-62
U-251 = tested on: U-251
SK-OV-3 = tested on: SK-OV-3
OVCAR-8 = tested on: OVCAR-8
MCF7 = tested on: MCF7
RXF 393 = tested on: RXF 393
BT-549 = tested on: BT-549
COLO 205 = tested on: COLO 205
NCI-H23 = tested on: NCI-H23
HOP-92 = tested on: HOP-92
HCT-15 = tested on: HCT-15
CCRF-CEM = tested on: CCRF-CEM
M14 = tested on: M14
EKVX = tested on: EKVX
SF-539 = tested on: SF-539
SF-295 = tested on: SF-295
T47D = tested on: T47D
NCI-H460 = tested on: NCI-H460
HL-60 = tested on: HL-60

| Structure (SMILES) | GI50 (HOP-62) | GI50 (U-251) | GI50 (SK-OV-3) | GI50 (OVCAR-8) | GI50 (MCF7) | GI50 (RXF 393) | GI50 (BT-549) | GI50 (COLO 205) | GI50 (NCI-H23) | GI50 (HOP-92) | GI50 (HCT-15) | GI50 (CCRF-CEM) | GI50 (M14) | GI50 (EKVX) | GI50 (SF-539) | GI50 (SF-295) | GI50 (T47D) | GI50 (NCI-H460) | GI50 (HL-60) |
| --- | --- | --- | --- | --- | --- | --- | --- | --- | --- | --- | --- | --- | --- | --- | --- | --- | --- | --- | --- |
| CCc1nnc(CC)n1N1C(=O)CCC1=O | > 100 µM (inactive) | > 100 µM (inactive) | > 100 µM (inactive) | > 100 µM (inactive) | > 100 µM (inactive) | > 100 µM (inactive) | > 100 µM (inactive) | > 100 µM (inactive) | > 100 µM (inactive) | > 100 µM (inactive) | > 100 µM | > 100 µM (inactive) | > 100 µM (inactive) | > 100 µM (inactive) | > 100 µM (inactive) | > 100 µM (inactive) |  |  |  |
| CC12CCCCC1=[N+]([O-])C(C)(C)N2O (stereo not given) | > 100 µM (inactive) | > 100 µM (inactive) | > 100 µM (inactive) | > 100 µM (inactive) | > 100 µM (inactive) | > 100 µM (inactive) |  | > 100 µM (inactive) | > 100 µM (inactive) | > 100 µM (inactive) | > 100 µM | > 100 µM (inactive) | > 100 µM (inactive) | > 100 µM (inactive) | > 100 µM (inactive) | > 100 µM (inactive) | > 100 µM (inactive) | > 100 µM (inactive) |  |
| CN(C)c1nc(NN)c2c(-c3ccccc3)c(-c3ccccc3)oc2n1 |  | > 100 µM (inactive) | > 100 µM (inactive) | > 100 µM (inactive) | > 100 µM (inactive) | > 100 µM (inactive) |  | > 100 µM (inactive) | > 100 µM (inactive) | > 100 µM (inactive) | > 100 µM | 52.5 µM (inactive) | > 100 µM (inactive) | > 100 µM (inactive) | > 100 µM (inactive) | > 100 µM (inactive) | > 100 µM (inactive) |  |  |
| CCOP(C)(=O)C(Nc1ccc(F)cc1)c1ccc(F)cc1 (stereo not given) | > 100 µM (inactive) | > 100 µM (inactive) | > 100 µM (inactive) | > 100 µM (inactive) |  | > 100 µM (inactive) |  | > 100 µM (inactive) | > 100 µM (inactive) | > 100 µM (inactive) | > 100 µM | > 100 µM (inactive) | > 100 µM (inactive) | > 100 µM (inactive) | > 100 µM (inactive) | > 100 µM (inactive) | > 100 µM (inactive) | > 100 µM (inactive) | > 100 µM (inactive) |
| COc1cccc(NC(=O)C(=O)C2C=CCS2(=O)=O)c1 (stereo not given) | > 100 µM (inactive) | > 100 µM (inactive) | > 100 µM (inactive) | 53.8 µM (inactive) |  | > 100 µM (inactive) |  | > 100 µM (inactive) | > 100 µM (inactive) |  | > 100 µM | > 100 µM (inactive) | > 100 µM (inactive) | > 100 µM (inactive) | > 100 µM (inactive) | > 100 µM (inactive) |  | > 100 µM (inactive) | > 100 µM (inactive) |
| C/C(=C\c1ccccn1)c1ccccn1 | > 100 µM (inactive) | > 100 µM (inactive) | > 100 µM (inactive) | > 100 µM (inactive) | > 100 µM (inactive) | > 100 µM (inactive) | > 100 µM (inactive) | > 100 µM (inactive) | > 100 µM (inactive) | > 100 µM (inactive) | > 100 µM |  | > 100 µM (inactive) | > 100 µM (inactive) |  | > 100 µM (inactive) |  | > 100 µM (inactive) |  |
| CC(C)=C/C=C1/CS(=O)(=O)C=C1C | > 100 µM (inactive) | > 100 µM (inactive) | > 100 µM (inactive) | > 100 µM (inactive) | > 100 µM (inactive) | > 100 µM (inactive) |  | > 100 µM (inactive) | > 100 µM (inactive) |  | 47.4 µM | > 100 µM (inactive) | > 100 µM (inactive) | > 100 µM (inactive) | > 100 µM (inactive) | > 100 µM (inactive) | > 100 µM (inactive) |  | > 100 µM (inactive) |
| CC(=O)Oc1cc2c[n+](C)c3c4cc(OC(C)=O)c(OC(C)=O)cc4ccc3c2cc1OC(C)=O | 3.71 µM (inactive) | 1.72 µM (inactive) | 4.32 µM (inactive) | 2.73 µM (inactive) | 3.17 µM (inactive) | 0.168 µM (active) |  | 6.5 µM (inactive) | 4.23 µM (inactive) | 4.32 µM (inactive) | 2.69 µM |  | 4.38 µM (inactive) | 3.56 µM (inactive) |  | 4.72 µM (inactive) | 1.87 µM (inactive) | 4.93 µM (inactive) |  |
| O=[N+]([O-])c1ccc2c(c1)=[N+]([O-])C1(CCCCC1)[N+]=2[O-] | 17.1 µM (inactive) | 17.2 µM (inactive) | 22.5 µM (inactive) | 15.8 µM (inactive) | 16.1 µM (inactive) | 18.5 µM (inactive) |  | 12.1 µM (inactive) | 22.9 µM (inactive) | 15.3 µM (inactive) | 18.2 µM | 3.36 µM (inactive) | 15.6 µM (inactive) | 15.5 µM (inactive) | 18.5 µM (inactive) | 19.8 µM (inactive) | 25.5 µM (inactive) | 18.8 µM (inactive) | 3.27 µM (inactive) |
| [N-]=[N+]=NI1OC(C(F)(F)F)(C(F)(F)F)c2ccccc21 | 15.1 µM (inactive) | 18.1 µM (inactive) | 21.5 µM (inactive) | 16.3 µM (inactive) | 12.9 µM (inactive) | 14 µM (inactive) |  | 13.8 µM (inactive) | 17.8 µM (inactive) | 13.4 µM (inactive) | 8.18 µM | 7.85 µM (inactive) | 31.2 µM (inactive) | 16.9 µM (inactive) | 16.5 µM (inactive) | 16 µM (inactive) | 12.1 µM (inactive) |  | 15.4 µM (inactive) |
| O=C(O)c1cc2ccccc2c(/N=N/c2ccc(S(=O)(=O)Nc3ncccn3)cc2)c1O | > 100 µM (inactive) | > 100 µM (inactive) | > 100 µM (inactive) | > 100 µM (inactive) | > 100 µM (inactive) | > 100 µM (inactive) | > 100 µM (inactive) | > 100 µM (inactive) |  | > 100 µM (inactive) | > 100 µM | > 100 µM (inactive) | > 100 µM (inactive) | > 100 µM (inactive) | > 100 µM (inactive) | > 100 µM (inactive) |  | > 100 µM (inactive) | > 100 µM (inactive) |
| CCC(=O)COc1ccc(NC(NC(=O)C(C(F)(F)F)C(F)(F)F)(C(F)(F)F)C(F)(F)F)cc1 | > 100 µM (inactive) | 46.7 µM (inactive) | 55.6 µM (inactive) | 23.9 µM (inactive) | 27.2 µM (inactive) | 18.6 µM (inactive) |  | 21.2 µM (inactive) | 36.5 µM (inactive) | 39.1 µM (inactive) | 27.5 µM | 22.3 µM (inactive) | 47.8 µM (inactive) | 49.2 µM (inactive) | 25.3 µM (inactive) | 66.4 µM (inactive) | 20.6 µM (inactive) | 77.4 µM (inactive) | 22.2 µM (inactive) |
| COC(CN(C=O)[C@@H](c1ccc(Cl)cc1)c1cc2ccccc2o1)OC | 22 µM (inactive) | 17.3 µM (inactive) | 0.841 µM (active) | 16 µM (inactive) | 15.5 µM (inactive) | 14.6 µM (inactive) |  | 17.6 µM (inactive) | 18.5 µM (inactive) | 16.7 µM (inactive) | 17 µM | 21.1 µM (inactive) | 17.3 µM (inactive) | 15.8 µM (inactive) | 17.9 µM (inactive) | 16.9 µM (inactive) | 11.6 µM (inactive) | 15.5 µM (inactive) | 20.5 µM (inactive) |
| Cc1cc(Br)cc(C)c1NC(=O)C(=O)C1C(=O)C(CC2C(=O)c3ccccc3C2=O)C(=O)CC1(C)C (stereo not given) | > 100 µM (inactive) | > 100 µM (inactive) | > 100 µM (inactive) | > 100 µM (inactive) | 18.6 µM (inactive) | 3.66 µM (inactive) | > 100 µM (inactive) | > 100 µM (inactive) | 84.1 µM (inactive) | 55.3 µM (inactive) | 63.5 µM | 41.7 µM (inactive) | > 100 µM (inactive) | 50.8 µM (inactive) | > 100 µM (inactive) | > 100 µM (inactive) |  | > 100 µM (inactive) | 28.5 µM (inactive) |
| Cc1ccc(C)c(NC(=O)/C(=N\NC(N)=S)C(C#N)c2ccccc2)c1 (stereo not given) | > 100 µM (inactive) | > 100 µM (inactive) | > 100 µM (inactive) | > 100 µM (inactive) |  |  |  | > 100 µM (inactive) | > 100 µM (inactive) | > 100 µM (inactive) | > 100 µM | > 100 µM (inactive) | > 100 µM (inactive) | > 100 µM (inactive) | > 100 µM (inactive) | > 100 µM (inactive) |  | > 100 µM (inactive) | > 100 µM (inactive) |
| Cc1ccc(/C=N/Nc2ncccn2)s1 | > 100 µM (inactive) | > 100 µM (inactive) | > 100 µM (inactive) | > 100 µM (inactive) | > 100 µM (inactive) | > 100 µM (inactive) |  | > 100 µM (inactive) | > 100 µM (inactive) | > 100 µM (inactive) | > 100 µM | > 100 µM (inactive) | > 100 µM (inactive) | > 100 µM (inactive) | > 100 µM (inactive) | > 100 µM (inactive) | > 100 µM (inactive) |  |  |
| FC1=C2C3CCC(C3)C2C1(F)F (stereo not given) | > 100 µM (inactive) | > 100 µM (inactive) | > 100 µM (inactive) | > 100 µM (inactive) | > 100 µM (inactive) | > 100 µM (inactive) |  | > 100 µM (inactive) | > 100 µM (inactive) |  | > 100 µM | 47.6 µM (inactive) | > 100 µM (inactive) | > 100 µM (inactive) | > 100 µM (inactive) | > 100 µM (inactive) | > 100 µM (inactive) | > 100 µM (inactive) | 81.7 µM (inactive) |
